Data reported in BindingDB's records for doi:10.1016/j.bmc.2007.01.010 (Abbott Laboratories, 2007).

Target: T1, RAC-alpha serine/threonine-protein kinase [139-480,S378A,S381A,T450D,S473D] (Homo sapiens, UniProt P31749, S378A/S381A/S473D/T450D)
T1 construct: 139-480
Test: Akt Kinase Assay
Conditions: pH 7.5; 22 °C
Experimental: The kinase assay uses His-Akt1 and a biotinylated peptide as substrate. The biotinylated peptides were immobilized on streptavidin-coated FLASH plates. After reaction, the 33P-phosphopeptide captured on the FLASH plates was measured with a TopCount Packard Instruments […] (Packard Instruments, Boston, MA).

T1 sequence (P31749 139-480 S378A/S381A/T450D/S473D): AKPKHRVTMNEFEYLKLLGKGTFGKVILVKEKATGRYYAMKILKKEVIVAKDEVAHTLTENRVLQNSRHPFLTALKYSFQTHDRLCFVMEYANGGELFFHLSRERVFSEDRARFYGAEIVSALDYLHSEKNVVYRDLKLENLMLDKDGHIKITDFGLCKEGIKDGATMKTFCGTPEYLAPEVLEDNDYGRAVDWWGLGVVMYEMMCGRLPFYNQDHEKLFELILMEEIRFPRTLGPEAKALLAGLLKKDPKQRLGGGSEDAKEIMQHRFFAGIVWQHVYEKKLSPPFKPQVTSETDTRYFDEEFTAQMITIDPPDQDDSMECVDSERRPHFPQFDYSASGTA

SMILES | IC50 [nM]
N[C@H](COc1cncc(-c2cc3cn[nH]c3cn2)c1)Cc1c[nH]c2ccccc12 [3-[(2S)-2-amino-3-[(5-{1H-pyrazolo[3,4-c]pyridin-5-yl}pyridin-3-yl)oxy]propyl]-1H-indole] | 0.6
Cn1cccc1-c1n[nH]c2cnc(-c3cncc(OC[C@@H](N)Cc4ccccc4)c3)cc12 [3-[(2S)-2-amino-3-phenylpropoxy]-5-[3-(1-methyl-1H-pyrrol-2-yl)-1H-pyrazolo[3,4-c]pyridin-5-yl]pyridine] | 228
N[C@H](COc1cncc(-c2cc3c(-c4ccco4)n[nH]c3cn2)c1)Cc1ccccc1 [3-[(2S)-2-amino-3-phenylpropoxy]-5-[3-(furan-2-yl)-1H-pyrazolo[3,4-c]pyridin-5-yl]pyridine] | 6.1
N[C@H](COc1cncc(-c2cc3cn[nH]c3cn2)c1)Cc1ccccc1 [3-[(2S)-2-amino-3-phenylpropoxy]-5-{1H-pyrazolo[3,4-c]pyridin-5-yl}pyridine] | 223
N[C@H](COc1cncc(-c2cc3c(Cl)n[nH]c3cn2)c1)Cc1ccccc1 [3-[(2S)-2-amino-3-phenylpropoxy]-5-{3-chloro-1H-pyrazolo[3,4-c]pyridin-5-yl}pyridine] | 59
C=Cc1n[nH]c2cnc(-c3cncc(OC[C@@H](N)Cc4ccccc4)c3)cc12 [3-[(2S)-2-amino-3-phenylpropoxy]-5-{3-ethenyl-1H-pyrazolo[3,4-c]pyridin-5-yl}pyridine] | 13
Cc1n[nH]c2cnc(-c3cncc(OC[C@@H](N)Cc4ccccc4)c3)cc12 [3-[(2S)-2-amino-3-phenylpropoxy]-5-{3-methyl-1H-pyrazolo[3,4-c]pyridin-5-yl}pyridine] | 25
N[C@H](COc1cncc(-c2cc3c(-c4ccccc4)n[nH]c3cn2)c1)Cc1ccccc1 [3-[(2S)-2-amino-3-phenylpropoxy]-5-{3-phenyl-1H-pyrazolo[3,4-c]pyridin-5-yl}pyridine] | 8.3
Nc1cc2[nH]ncc2cc1-c1cncc(OC[C@@H](N)Cc2c[nH]c3ccccc23)c1 [5-{5-[(2S)-2-amino-3-(1H-indol-3-yl)propoxy]pyridin-3-yl}-1H-indazol-6-amine] | 51
N[C@H](COc1cncc(-c2ccc3[nH]ncc3c2)c1)Cc1c[nH]c2ccccc12 [5-{5-[(2S)-2-amino-3-(1H-indol-3-yl)propoxy]pyridin-3-yl}-1H-indazole] | 1.5
N[C@H](COc1cncc(-c2ccc3[nH]nc(C(F)(F)F)c3c2)c1)Cc1c[nH]c2ccccc12 [5-{5-[(2S)-2-amino-3-(1H-indol-3-yl)propoxy]pyridin-3-yl}-3-(trifluoromethyl)-1H-indazole] | 1.8
Nc1cc2[nH]nc(Cl)c2cc1-c1cncc(OC[C@@H](N)Cc2c[nH]c3ccccc23)c1 [5-{5-[(2S)-2-amino-3-(1H-indol-3-yl)propoxy]pyridin-3-yl}-3-chloro-1H-indazol-6-amine] | 7.1
N[C@H](COc1cncc(-c2ccc3[nH]nc(Cl)c3c2)c1)Cc1c[nH]c2ccccc12 [5-{5-[(2S)-2-amino-3-(1H-indol-3-yl)propoxy]pyridin-3-yl}-3-chloro-1H-indazole] | 1
N[C@H](COc1cncc(-c2cc3cn[nH]c3cc2[N+](=O)[O-])c1)Cc1c[nH]c2ccccc12 [5-{5-[(2S)-2-amino-3-(1H-indol-3-yl)propoxy]pyridin-3-yl}-6-nitro-1H-indazole] | 953
Cc1n[nH]c2c[n+]([O-])c(-c3cncc(OC[C@@H](N)Cc4ccccc4)c3)cc12 [5-{5-[(2S)-2-amino-3-phenylpropoxy]pyridin-3-yl}-3-methyl-6-oxido-1H-pyrazolo[3,4-c]pyridin-6-ium] | 104
Cc1n[nH]c2cnc(-c3cncc(OC[C@@H](N)Cc4c[nH]c5ccccc45)c3)cc12 [pyrazolopyridine analog, 9g] | 0.34
